Measured values published in PubChem BioAssay (NCI).
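Five compound concentrations were applied to cells in 96-well plates for 48 hours; endpoints were derived by simple linear interpolation of the resulting dose-response curve. TGI is the concentration that stops growth completely.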

What was measured:
Assay in all cases: growth of human tumour cells (NCI), 48 h
K-562 leukemia = tested on: K-562 leukemia
ACHN renal = tested on: ACHN renal
MALME-3M melanoma = tested on: MALME-3M melanoma
SK-MEL-5 melanoma = tested on: SK-MEL-5 melanoma
SK-OV-3 ovarian = tested on: SK-OV-3 ovarian
OVCAR-8 ovarian = tested on: OVCAR-8 ovarian
HOP-62 NSCLC = tested on: HOP-62 NSCLC
SW-620 colon = tested on: SW-620 colon
CAKI-1 renal = tested on: CAKI-1 renal
M19-MEL melanoma = tested on: M19-MEL melanoma
MOLT-4 leukemia = tested on: MOLT-4 leukemia
SNB-19 CNS = tested on: SNB-19 CNS
RXF-631 renal = tested on: RXF-631 renal
HT29 colon = tested on: HT29 colon
KM20L2 colon = tested on: KM20L2 colon
SNB-75 CNS = tested on: SNB-75 CNS
LOX IMVI melanoma = tested on: LOX IMVI melanoma
DLD-1 colon = tested on: DLD-1 colon
A498 renal = tested on: A498 renal
SNB-78 CNS = tested on: SNB-78 CNS
NCI-H522 lung = tested on: NCI-H522 lung
CCRF-CEM leukemia = tested on: CCRF-CEM leukemia
IGROV1 ovarian = tested on: IGROV1 ovarian
OVCAR-5 ovarian = tested on: OVCAR-5 ovarian
SF-268 CNS = tested on: SF-268 CNS
XF 498 CNS = tested on: XF 498 CNS
KM12 colon = tested on: KM12 colon
SF-539 CNS = tested on: SF-539 CNS
OVCAR-3 ovarian = tested on: OVCAR-3 ovarian
UACC-62 melanoma = tested on: UACC-62 melanoma
HL-60(TB) leukemia = tested on: HL-60(TB) leukemia
SF-295 CNS = tested on: SF-295 CNS
LXFL 529 NSCLC = tested on: LXFL 529 NSCLC
U251 CNS = tested on: U251 CNS
TK-10 renal = tested on: TK-10 renal
SN12C renal = tested on: SN12C renal
RXF 393 renal = tested on: RXF 393 renal
COLO 205 colon = tested on: COLO 205 colon
786-0 renal = tested on: 786-0 renal
HOP-18 NSCLC = tested on: HOP-18 NSCLC
HCT-15 colon = tested on: HCT-15 colon
OVCAR-4 ovarian = tested on: OVCAR-4 ovarian
HCT-116 colon = tested on: HCT-116 colon
NCI-H460 lung = tested on: NCI-H460 lung
M14 melanoma = tested on: M14 melanoma
NCI-H23 lung = tested on: NCI-H23 lung
NCI-H226 lung = tested on: NCI-H226 lung
UACC-257 melanoma = tested on: UACC-257 melanoma
EKVX NSCLC = tested on: EKVX NSCLC
DMS 273 small cell lung = tested on: DMS 273 small cell lung
SK-MEL-2 melanoma = tested on: SK-MEL-2 melanoma
SK-MEL-28 melanoma = tested on: SK-MEL-28 melanoma
HCC-2998 colon = tested on: HCC-2998 colon
SR leukemia = tested on: SR leukemia
UO-31 renal = tested on: UO-31 renal
A549 NSCLC = tested on: A549 NSCLC
HOP-92 NSCLC = tested on: HOP-92 NSCLC
RPMI-8226 leukemia = tested on: RPMI-8226 leukemia
DMS 114 small cell lung = tested on: DMS 114 small cell lung

Measured: TGI

O=C(/C=C/c1ccccc1O)c1cccs1
45.5 µM: A498 renal
> 100 µM: K-562 leukemia | ACHN renal | MALME-3M melanoma | SK-MEL-5 melanoma | SK-OV-3 ovarian | OVCAR-8 ovarian | HOP-62 NSCLC | SW-620 colon | CAKI-1 renal | M19-MEL melanoma | MOLT-4 leukemia | SNB-19 CNS | RXF-631 renal | HT29 colon | KM20L2 colon | SNB-75 CNS | LOX IMVI melanoma | DLD-1 colon | SNB-78 CNS | NCI-H522 lung | CCRF-CEM leukemia | IGROV1 ovarian | OVCAR-5 ovarian | SF-268 CNS | XF 498 CNS | KM12 colon | SF-539 CNS | OVCAR-3 ovarian | UACC-62 melanoma | HL-60(TB) leukemia | SF-295 CNS | LXFL 529 NSCLC | U251 CNS | TK-10 renal | SN12C renal | RXF 393 renal | COLO 205 colon | 786-0 renal | HOP-18 NSCLC | HCT-15 colon | OVCAR-4 ovarian | HCT-116 colon | NCI-H460 lung | M14 melanoma | NCI-H23 lung | NCI-H226 lung | UACC-257 melanoma | EKVX NSCLC | DMS 273 small cell lung | SK-MEL-2 melanoma | SK-MEL-28 melanoma | HCC-2998 colon | SR leukemia | UO-31 renal | A549 NSCLC

Cn1c2c(c3ccccc31)CCN(CCCN1CCN(c3cccc(Cl)c3)CC1)C2=O
29.9 µM: NCI-H460 lung
24.2 µM: HL-60(TB) leukemia
55.3 µM: MOLT-4 leukemia
> 100 µM: SK-OV-3 ovarian | SW-620 colon | DLD-1 colon | CCRF-CEM leukemia | SF-268 CNS | TK-10 renal | HCT-15 colon | EKVX NSCLC | A549 NSCLC
35.8 µM: K-562 leukemia
32.1 µM: SF-539 CNS
27.6 µM: XF 498 CNS
29 µM: HT29 colon
34.3 µM: SK-MEL-28 melanoma
32.6 µM: UO-31 renal
24.8 µM: HCT-116 colon
86.2 µM: SNB-19 CNS
42.5 µM: M19-MEL melanoma
12.7 µM: U251 CNS
41.1 µM: HOP-62 NSCLC
36.1 µM: SK-MEL-5 melanoma
44.4 µM: DMS 114 small cell lung
90.7 µM: RXF-631 renal
96.8 µM: ACHN renal
34.5 µM: 786-0 renal
18.7 µM: HOP-92 NSCLC
84.5 µM: DMS 273 small cell lung
40.1 µM: M14 melanoma
10 µM: A498 renal
32.2 µM: LXFL 529 NSCLC
79.9 µM: NCI-H522 lung
35 µM: RPMI-8226 leukemia
62.4 µM: SN12C renal
66.9 µM: NCI-H23 lung
11.1 µM: KM20L2 colon
50.8 µM: LOX IMVI melanoma
49.7 µM: RXF 393 renal
31.8 µM: COLO 205 colon
83.1 µM: HOP-18 NSCLC
66.1 µM: IGROV1 ovarian
39.2 µM: UACC-62 melanoma
77.4 µM: OVCAR-8 ovarian
38.4 µM: CAKI-1 renal

CC(=O)c1cccc(NC(=O)C(=O)C(C(=O)NN)c2ccccc2)c1 (configuration not stated)
> 100 µM: K-562 leukemia | ACHN renal | MALME-3M melanoma | SK-MEL-5 melanoma | SK-OV-3 ovarian | OVCAR-8 ovarian | HOP-62 NSCLC | SW-620 colon | CAKI-1 renal | M19-MEL melanoma | MOLT-4 leukemia | SNB-19 CNS | RXF-631 renal | HT29 colon | KM20L2 colon | SNB-75 CNS | LOX IMVI melanoma | DLD-1 colon | A498 renal | HOP-92 NSCLC | RPMI-8226 leukemia | NCI-H522 lung | CCRF-CEM leukemia | IGROV1 ovarian | OVCAR-5 ovarian | SF-268 CNS | XF 498 CNS | KM12 colon | SF-539 CNS | OVCAR-3 ovarian | UACC-62 melanoma | LXFL 529 NSCLC | U251 CNS | TK-10 renal | SN12C renal | RXF 393 renal | COLO 205 colon | 786-0 renal | HOP-18 NSCLC | HCT-15 colon | OVCAR-4 ovarian | HCT-116 colon | NCI-H460 lung | DMS 114 small cell lung | M14 melanoma | NCI-H23 lung | NCI-H226 lung | UACC-257 melanoma | EKVX NSCLC | DMS 273 small cell lung | SK-MEL-2 melanoma | SK-MEL-28 melanoma | HCC-2998 colon | UO-31 renal | A549 NSCLC
